# Laboratory results taken from patent US6831079B1, “Vasopressin agonist formulation and process” (American Cyanamid Company, priority 1999, dated 2004).
# Target: Vasopressin V2 (Rattus norvegicus, UniProt Q00788)
# Assay: Vasopressin V2 agonist effects in normal conscious water-loaded rats
# Assay type: in vivo
# Design: from tissue; host or cells: whole living Sprague-Dawley rat; the receptor is the animal's own (renal, by own knowledge)
# Settings: Sprague-Dawley (CD) rats; for Osmolality (% Increase): change in osmolality as percent of control; for Urine Volume (% decrease): vs. control
# Excerpt: Vasopressin V2 Agonist Effects of Test Compounds in Normal Conscious Water-loaded Rats
# Male or female normotensive Sprague-Dawley rats (Charles River Laboratories, Inc., Kingston, N.Y.) of 350-500 g body weight were supplied with standard rodent diet (Purina Rodent Lab. Chow 5001) and water ad libitum. On the day of test, rats were placed individually into metabolic cages equipped with devices to separate the feces from the urine and containers for collection of urine. […] The vehicle used was 20% dimethylsulfoxide (DMSO) in 2.5% preboiled corn starch. Thirty minutes after dosing the test compound, rats were gavaged with water at 30 ml/kg into the stomach using a feeding needle. During the test, rats were not provided with water or food. Urine was collected for four hours after dosing of the test compound. At the end of four hours, urine volume was measured. Urinary osmolality was determined using a Fiske One-Ten Osmometer (Fiske Associates, Norwood, Mass., 02062) or an Advanced CRYOMATIC Osmometer, Model 3C.2 (Advanced Instruments, Norwood, Mass.). Determinations of Na^+, K^+ and Cl^− ion were carried out using ion specific electrodes in a Beckman SYNCHRON EL-ISE Electrolyte System analyzer. The urinary osmolality should increase proportionally. In the screening test, two rats were used for each compound. If the difference in the urine volume of the two rats was greater than 50%, a third rat was used.
# [1] = 10 mg/kg oral, urine collected four hours
# Chain of Vasopressin V2 (Q00788 whole entry): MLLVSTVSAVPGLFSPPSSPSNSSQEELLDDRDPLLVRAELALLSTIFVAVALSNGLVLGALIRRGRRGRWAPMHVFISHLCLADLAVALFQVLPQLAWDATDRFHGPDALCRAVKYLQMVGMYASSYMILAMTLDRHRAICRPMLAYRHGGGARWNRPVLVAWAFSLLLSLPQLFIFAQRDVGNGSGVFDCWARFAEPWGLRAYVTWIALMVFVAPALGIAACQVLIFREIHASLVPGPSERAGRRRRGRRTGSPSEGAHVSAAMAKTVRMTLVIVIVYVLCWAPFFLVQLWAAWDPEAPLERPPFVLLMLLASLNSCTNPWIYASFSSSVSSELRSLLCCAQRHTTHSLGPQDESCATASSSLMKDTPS
Osmolality (% Increase) (10 mg/kg oral),Urine Volume (% decrease) [1],Osmolality (% Increase) (1 mg/kg),Urine Volume (% decrease) (1 mg/kg),Compound
37%,75%,–,–,"CCCCn1ccc(-c2ccc(C(=O)N3Cc4cccn4Cc4ccccc43)cc2)n1 [Example 28, [4-(1-Butyl-1H-pyrazol-3-yl)-phenyl]-(5H,11H-pyrrolo[2,1-c][1,4]-benzodiazepin-10-yl)-methanone]"
322%,80%,–,–,"CC(=O)c1ccc(C(=O)N2Cc3cccn3Cc3ccccc32)cc1 [Example 22, 1-[4-(5H,11H-Pyrrolo[2,1-c][1,4]benzodiazepine-10-carbonyl)-phenyl]-ethanone]"
223%,53%,–,–,"Cc1n[nH]c(-c2ccc(C(=O)N3Cc4cccn4Cc4ccccc43)cc2)n1 [Example 50, [4-(5-Methyl-2H-[1,2,4]triazol-3-yl)-phenyl]-(5H,11H-pyrrolo[2,1-c][1,4]-benzodiazepin-10-yl)-methanone]"
245%,59%,–,–,"Cc1cc(C)n(-c2ccc(C(=O)N3Cc4cccn4Cc4ccccc43)cc2)n1 [Example 61, [4-(3,5-Dimethyl-pyrazol-1-yl)-phenyl]-(5H,11H-pyrrolo[2,1-c][1,4]-benzodiazepin-10-yl)-methanone]"
145%,30%,–,–,"COc1cc(-n2ccc(C)n2)ccc1C(=O)N1Cc2ccc(CN(C)C)n2Cc2ccccc21 [Example 108, (3-Dimethylaminomethyl-5H,11H-pyrrolo[2,1-c][1,4]benzodiazepin-10-yl)[2-methoxy-4-(3-methyl-pyrazol-1-yl)-phenyl]-methanone]"
–,–,152% (1 mg/kg),25% (1 mg/kg),"Cc1ccn(-c2ncc(C(=O)N3Cc4cccn4Cc4ccccc43)c(C(F)(F)F)n2)n1 [Example 20, [2-(3-Methyl-pyrazol-1-yl)-4-trifluoromethyl-pyrimidin-5-yl]-(5H,11H-pyrrolo[2,1-c][1,4]benzodiazepin-10-yl)-methanone]"
229%,66%,–,–,"Cn1cc(-c2ccc(C(=O)N3Cc4cccn4Cc4ccccc43)c(Cl)c2)cn1 [Example 115, [2-Chloro-4-(1-methyl-1H-pyrazol-4-yl)phenyl) (5H,11H-pyrrolo[2,1-c][1,4]-benzodiazepin-10-yl)-methanone]"
69%,22%,–,–,"O=C(c1ccc(F)cc1F)N1Cc2cccn2Cc2ccccc21 [Example 91, (2,4-Difluoro-phenyl)-(5H,11H-pyrrolo[2,1-c][1,4]benzodiazepin-10-yl)-methanone]"
183%,46%,–,–,"O=C(c1ccc(-c2ccn(C(=O)c3ccccc3-c3ccccc3)n2)cc1)N1Cc2cccn2Cc2ccccc21 [Example 40, {4-[1-(Biphenyl-2-carbonyl)-1H-pyrazol-3-yl]-phenyl}-(5H,11H-pyrrolo[2,1-c][1,4]benzodiazepin-10-yl)-methanone]"
308%,63%,–,–,"Cc1ccc(F)cc1C(=O)n1ccc(-c2ccc(C(=O)N3Cc4cccn4Cc4ccccc43)cc2)n1 [Example 35, {4-[1-(5-Fluoro-2-methyl-benzoyl)-1H-pyrazol-3-yl]-phenyl}-(5H,11H-pyrrolo[2,1-c][1,4]benzodiazepin-10-yl)-methanone]"
607%,80%,–,–,"Cc1ccn(-c2ccc(C(=O)N3Cc4cccn4Cc4ccccc43)cc2)n1 [Example 59, [4-(3-Methyl-pyrazol-1-yl)-phenyl]-(5H,11H-pyrrolo[2,1-c][1,4]-benzodiazepin-10-yl)-methanone]"
240%,58%,–,–,"Cc1cnn(-c2ccc(C(=O)N3Cc4cccn4Cc4ccccc43)c(C(F)(F)F)c2)c1 [Example 3, [4-(4-Methyl-pyrazol-1-yl)-2-trifluoromethyl-phenyl]-(5H,11H-pyrrolo[2,1-c][1,4]benzodiazepin-10-yl)-methanone]"
413%,61%,–,–,Cc1ccn(-c2ccc(C(=O)N3Cc4cccn4Cc4ccccc43)c(Br)c2)n1 [Example 90]
406%,86%,–,–,"O=C(c1ccc(-n2cncn2)cc1Cl)N1Cc2cccn2Cc2ccccc21 [Example 14, [2-Chloro-4-(1,2,4-triazol-1-yl)-phenyl]-(5H,11H-pyrrolo[2,1-c][1,4]benzodiazepin-10-yl)-methanone]"
490%,82%,–,–,"Cc1n[nH]c(-c2ccc(C(=O)N3Cc4cccn4Cc4ccccc43)c(Cl)c2)n1 [Example 81, [2-Choro-4-(5-methyl-2H-[1,2,4]triazol-3-yl)phenyl]-(5H,11H-pyrrolo[2,1-c][1,4]benzodiazepine-10-carbonyl)-methanone]"
269%,66%,–,–,"Cn1ccc(-c2ccc(C(=O)N3Cc4ccnn4Cc4ccccc43)cc2)n1 [Example 120A, [4-(1-Methyl-1H-pyrazol-3-yl)phenyl](4H,10H-pyrazolo[5,1c][1,4]-benzodiazepin-5-yl)methanone]"
291%,56%,–,–,"[2-Chloro-4-(2-methyl-2H-[1,2,4]triazol-3-yl)-phenyl]-(5H,11H-pyrrolo [2,1-c][1,4]benzodiazepin-10-carbonyl)-methanone [Example 84]"
–,–,306% (1 mg/kg),80% (1 mg/kg),"Cc1ccn(-c2ccc(C(=O)N3Cc4cccn4Cc4ccccc43)c(C(F)(F)F)c2)n1 [Example 2, [4-(3-Methyl-pyrazol-1-yl)-2-trifluoromethyl-phenyl](5H,11H-pyrrolo[2,1-c]-[1,4]benzodiazepin-10-yl)-methanone]"
240%,69%,–,–,"O=C(c1ccc(-c2ccn(C(=O)c3ccccc3-c3ccc(C(F)(F)F)cc3)n2)cc1)N1Cc2cccn2Cc2ccccc21 [Example 41, {4-[1-(4′-Trifluoromethyl-biphenyl-2-carbonyl)-1H-pyrazol-3-yl]-phenyl}-(5H,11H-pyrrolo[2,1-c][1,4]benzodiazepin-10-yl)-methanone]"
979%,87%,–,–,"Cn1ccc(-c2ccc(C(=O)N3Cc4cccn4Cc4ccccc43)cc2)n1 [Example 25, [4-(1-Methyl-1H-pyrazolyl-3-yl)-phenyl]-(5H,11H-pyrrolo[2,1-c][1,4]-benzodiazepin-10-yl)-methanone]"
159%,47%,–,–,"O=C(c1ccc(-c2cc[nH]n2)cc1)N1Cc2cccn2Cc2ccccc21 [Example 24, [4-(1H-Pyrazol-3-yl)-phenyl]-(5H,11H-pyrrolo[2,1-c][1,4]benzodiazepin-10-yl)-methanone]"
285%,70%,–,–,Cc1cnn(-c2ccc(C(=O)N3Cc4cccn4Cc4ccccc43)c(Cl)c2)c1 [Example 11]
300%,68%,–,–,"Cc1ccn(-c2ccc(C(=O)N3Cc4ccnn4Cc4ccccc43)c(C(F)(F)F)c2)n1 [Example 95, [4-(3-Methylpyrazol-1-yl)-2-trifluoromethylphenyl]-(5H,11H-pyrazolo[5,1-c]-[1,4]benzodiazepin-10-yl)-methanone]"
231%,56%,–,–,"O=C(c1ccc(-n2ccc(C3CC3)n2)cc1C(F)(F)F)N1Cc2cccn2Cc2ccccc21 [Example 5, [4-(3-Cyclopropyl-pyrazol-1-yl)-2-trifluoromethy-phenyl]-(5H,11H-pyrrolo[2,1-c][1,4]benzodiazepin-10-yl)-methanone]"
270%,58%,–,–,"Cc1cn(-c2ccc(C(=O)N3Cc4cccn4Cc4ccccc43)c(C(F)(F)F)c2)cn1 [Example 6, [4-(4-Methyl-imidazol-1-yl)-2-trifluoromethyl-phenyl]-(5H,11H-pyrrolo[2,1-c][1,4]benzodiazepin-10-yl)-methanone]"
256%,66%,–,–,"Cc1ccn(-c2ccc(C(=O)N3Cc4ccnn4Cc4ccccc43)c(Cl)c2)n1 [Example 116, [2-Chloro-4-(3-methyl-pyrazol-1-yl)-phenyl]-(4H,10H-pyrazolo[5,1-c][1,4]-benzodiazepin-5-yl)-methanone]"
